Reference: PubChem BioAssay AID330 (DTP/NCI, 2004)
Several values for one entry are separate records, joined by “and”; a condition that tells them apart may be missing. Identical values can stand only once. Toxic doses and inconclusive results are not listed.

Test system: P388 leukemia ip, CD2F1 mice, survival T/C
Assay: NCI In Vivo Anticancer Drug Screen. Data for tumor model P388 Leukemia (intraperitoneal) in CD2F1 (CDF1) mice
Conditions: endpoint: median survival time, higher = longer survival
Procedure, shortened: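 Mice carrying the transplanted tumor received test compound or vehicle. Survival was recorded in each group, and the value is the treated-group measurement divided by that of the vehicle-treated control group.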

[1] = dose: 50.0 mg/kg/injection, schedule: Q01DX005 (ip), vehicle: saline with Tween-80
[2] = dose: 100.0 mg/kg/injection, schedule: Q01DX009 (ip), vehicle: saline with Tween-80
[3] = dose: 200.0 mg/kg/injection, schedule: Q01DX009 (ip), vehicle: saline with Tween-80
[4] = dose: 50.0 mg/kg/injection, schedule: Q01DX009 (ip), vehicle: saline with Tween-80
[5] = dose: 25.0 mg/kg/injection, schedule: Q01DX009 (ip), vehicle: saline
[6] = dose: 50.0 mg/kg/injection, schedule: Q01DX009 (ip), vehicle: saline
[7] = dose: 100.0 mg/kg/injection, schedule: Q01DX009 (ip), vehicle: saline
[8] = dose: 200.0 mg/kg/injection, schedule: Q01DX009 (ip), vehicle: saline
[9] = dose: 50.0 mg/kg/injection, schedule: Q01DX005 (ip), vehicle: Klucel (hydroxypropylcellulose) (HPC)
[10] = dose: 100.0 mg/kg/injection, schedule: Q01DX005 (ip), vehicle: Klucel (hydroxypropylcellulose) (HPC)
[11] = dose: 200.0 mg/kg/injection, schedule: Q01DX005 (ip), vehicle: Klucel (hydroxypropylcellulose) (HPC)
[12] = dose: 100.0 mg/kg/injection, schedule: Q01DX001 (ip), vehicle: Klucel (hydroxypropylcellulose) (HPC)
[13] = dose: 200.0 mg/kg/injection, schedule: Q01DX001 (ip), vehicle: Klucel (hydroxypropylcellulose) (HPC)
[14] = dose: 100.0 mg/kg/injection, schedule: Q04DX002 (ip), vehicle: saline with Tween-80
[15] = dose: 200.0 mg/kg/injection, schedule: Q04DX002 (ip), vehicle: saline with Tween-80
[16] = dose: 400.0 mg/kg/injection, schedule: Q04DX002 (ip), vehicle: saline with Tween-80

Structure (SMILES): COc1ccc2c(c1O)C13CC=NC(C2)C1C(C)(C)C(C)(C)C(=O)C3 (configuration not stated)
- T/C (dose: 12.5 mg/kg/injection, schedule: Q01DX005 (ip), vehicle: saline with Tween-80): 100 % of control
- T/C (dose: 25.0 mg/kg/injection, schedule: Q01DX005 (ip), vehicle: saline with Tween-80): 101 % of control
- T/C [1]: 100 % of control and 97 % of control

Structure (SMILES): CCN(CC)C(=S)SC(=S)N(CC)CC
- T/C [2]: 108 % of control
- T/C [3]: 104 % of control
- T/C (dose: 400.0 mg/kg/injection, schedule: Q01DX009 (ip), vehicle: saline with Tween-80): 103 % of control

Structure (SMILES): COc1cccc(OC)c1OCCBr
- T/C [4]: 103 % of control
- T/C [2]: 98 % of control
- T/C [3]: 100 % of control

Structure (SMILES): CCCC(=O)CC(=O)Nc1ccccc1
- T/C (dose: 100.0 mg/kg/injection, schedule: Q01DX001 (ip), vehicle: saline): 109 % of control
- T/C (dose: 200.0 mg/kg/injection, schedule: Q01DX001 (ip), vehicle: saline): 118 % of control
- T/C (dose: 400.0 mg/kg/injection, schedule: Q01DX001 (ip), vehicle: saline): 118 % of control

Structure (SMILES): COC(=O)C1CCCCC1C(=O)OC (configuration not stated)
- T/C (dose: 12.5 mg/kg/injection, schedule: Q01DX009 (ip), vehicle: saline): 108 % of control
- T/C [5]: 104 % of control and 111 % of control
- T/C [6]: 104 % of control
- T/C [7]: 100 % of control and 101 % of control (2×)
- T/C [8]: 110 % of control

Structure (SMILES): CCC#CC(=O)O
- T/C [5]: 96 % of control
- T/C [6]: 95 % of control and 96 % of control

Structure (SMILES): c1ncn(C23CC4CC(CC(C4)C2)C3)n1
- T/C (dose: 1.56 mg/kg/injection, schedule: Q01DX001 (ip), vehicle: Klucel (hydroxypropylcellulose) (HPC)): 106 % of control
- T/C (dose: 3.12 mg/kg/injection, schedule: Q01DX001 (ip), vehicle: Klucel (hydroxypropylcellulose) (HPC)): 104 % of control
- T/C (dose: 6.25 mg/kg/injection, schedule: Q01DX001 (ip), vehicle: Klucel (hydroxypropylcellulose) (HPC)): 107 % of control and 96 % of control

Structure (SMILES): CNC(=O)Nc1ccccc1C(=O)NN
- T/C (dose: 25.0 mg/kg/injection, schedule: Q01DX009 (ip), vehicle: Klucel (hydroxypropylcellulose) (HPC)): 100 % of control
- T/C (dose: 50.0 mg/kg/injection, schedule: Q01DX009 (ip), vehicle: Klucel (hydroxypropylcellulose) (HPC)): 109 % of control
- T/C (dose: 100.0 mg/kg/injection, schedule: Q01DX009 (ip), vehicle: Klucel (hydroxypropylcellulose) (HPC)): 105 % of control
- T/C (dose: 200.0 mg/kg/injection, schedule: Q01DX009 (ip), vehicle: Klucel (hydroxypropylcellulose) (HPC)): 96 % of control

Structure (SMILES): CC(=O)c1nc2c(N)nc(N)nc2nc1C
- T/C (dose: 25.0 mg/kg/injection, schedule: Q04DX003 (ip), vehicle: saline with Tween-80): 96 % of control
- T/C (dose: 50.0 mg/kg/injection, schedule: Q04DX003 (ip), vehicle: saline with Tween-80): 96 % of control
- T/C (dose: 100.0 mg/kg/injection, schedule: Q04DX003 (ip), vehicle: saline with Tween-80): 96 % of control

Structure (SMILES): O=C(O)CCS/N=N/c1nc2nc[nH]c(=O)c2[nH]1
- T/C [9]: 107 % of control
- T/C [10]: 103 % of control
- T/C [11]: 104 % of control

Structure (SMILES): C/C(=N\N=C(/[Se])N1CCC1)c1ccccn1
- T/C (dose: 12.5 mg/kg/injection, schedule: Q04DX003 (ip), vehicle: Klucel (hydroxypropylcellulose) (HPC)): 106 % of control
- T/C (dose: 25.0 mg/kg/injection, schedule: Q04DX003 (ip), vehicle: Klucel (hydroxypropylcellulose) (HPC)): 104 % of control

Structure (SMILES): Cn1cc2c(c1-c1ccccc1)[n+](=O)c1ccccc1n2[O-]
- T/C [1]: 94 % of control
- T/C (dose: 100.0 mg/kg/injection, schedule: Q01DX005 (ip), vehicle: saline with Tween-80): 91 % of control
- T/C (dose: 200.0 mg/kg/injection, schedule: Q01DX005 (ip), vehicle: saline with Tween-80): 95 % of control

Structure (SMILES): [Br][Sn]([Br])([S]c1ccccn1)[S]c1ccccn1
- T/C (dose: 12.5 mg/kg/injection, schedule: Q01DX009 (ip), vehicle: saline with Tween-80): 111 % of control
- T/C (dose: 25.0 mg/kg/injection, schedule: Q01DX009 (ip), vehicle: saline with Tween-80): 103 % of control
- T/C [4]: 100 % of control and 95 % of control
- T/C [3]: 89 % of control

Structure (SMILES): COC1OC(=O)C(Cl)=C1N=[N+]=[N-] (configuration not stated)
- T/C (dose: 15.0 mg/kg/injection, schedule: Q01DX005 (ip), vehicle: Klucel (hydroxypropylcellulose) (HPC)): 105 % of control
- T/C (dose: 30.0 mg/kg/injection, schedule: Q01DX005 (ip), vehicle: Klucel (hydroxypropylcellulose) (HPC)): 102 % of control
- T/C (dose: 60.0 mg/kg/injection, schedule: Q01DX005 (ip), vehicle: Klucel (hydroxypropylcellulose) (HPC)): 109 % of control

Structure (SMILES): CCn1c2ccccc2nc2cc3c(cc21)c(Cl)c(=O)c1ccccc13
- T/C [4]: 108 % of control
- T/C [2]: 104 % of control
- T/C [3]: 98 % of control

Structure (SMILES): CCN(CC)CCN1CC(=O)N2CCCCN2C(=O)C1
- T/C (dose: 50.0 mg/kg/injection, schedule: Q01DX005 (ip), vehicle: saline): 104 % of control
- T/C (dose: 100.0 mg/kg/injection, schedule: Q01DX005 (ip), vehicle: saline): 102 % of control
- T/C (dose: 200.0 mg/kg/injection, schedule: Q01DX005 (ip), vehicle: saline): 95 % of control

Structure (SMILES): COc1ccc2c(c1)C1(C)C(=O)OC(C2=O)C1C (configuration not stated)
- T/C (dose: 50.0 mg/kg/injection, schedule: Q01DX001 (ip), vehicle: Klucel (hydroxypropylcellulose) (HPC)): 104 % of control
- T/C [12]: 99 % of control
- T/C [13]: 114 % of control

Structure (SMILES): CC1=C(/C=C/Cl)CC(Cl)C(C)(Cl)C1 (configuration not stated)
- T/C (dose: 2.5 mg/kg/injection, schedule: Q01DX009 (ip), vehicle: Klucel (hydroxypropylcellulose) (HPC)): 102 % of control
- T/C (dose: 5.0 mg/kg/injection, schedule: Q01DX009 (ip), vehicle: Klucel (hydroxypropylcellulose) (HPC)): 102 % of control
- T/C (dose: 10.0 mg/kg/injection, schedule: Q01DX009 (ip), vehicle: Klucel (hydroxypropylcellulose) (HPC)): 93 % of control
- T/C (dose: 20.0 mg/kg/injection, schedule: Q01DX009 (ip), vehicle: Klucel (hydroxypropylcellulose) (HPC)): 99 % of control

Structure (SMILES): Nc1nc(N)nc(-c2ccccc2Cl)n1
- T/C [6]: 117 % of control
- T/C [7]: 93 % of control
- T/C [8]: 117 % of control

Structure (SMILES): O=c1[nH]c(=S)[nH]c2c1CN(CCCN1CCN(CCCN3CNc4[nH]c(=S)[nH]c(=O)c4C3)CC1)CN2
- T/C [9]: 96 % of control
- T/C [10]: 94 % of control
- T/C [11]: 95 % of control

Structure (SMILES): COn1nnc2ccccc21
- T/C [4]: 99 % of control
- T/C [2]: 104 % of control
- T/C [3]: 92 % of control

Structure (SMILES): O=C(Oc1ccccc1)N1CCCCC1
- T/C (dose: 12.5 mg/kg/injection, schedule: Q01DX001 (ip), vehicle: saline with Tween-80): 95 % of control
- T/C (dose: 25.0 mg/kg/injection, schedule: Q01DX001 (ip), vehicle: saline with Tween-80): 99 % of control
- T/C (dose: 50.0 mg/kg/injection, schedule: Q01DX001 (ip), vehicle: saline with Tween-80): 106 % of control
- T/C (dose: 100.0 mg/kg/injection, schedule: Q01DX001 (ip), vehicle: saline with Tween-80): 104 % of control

Structure (SMILES): BrC=C1c2ccccc2-c2ccccc21
- T/C (dose: 100.0 mg/kg/injection, schedule: Q04DX003 (ip), vehicle: Klucel (hydroxypropylcellulose) (HPC)): 100 % of control
- T/C (dose: 200.0 mg/kg/injection, schedule: Q04DX003 (ip), vehicle: Klucel (hydroxypropylcellulose) (HPC)): 91 % of control
- T/C (dose: 400.0 mg/kg/injection, schedule: Q04DX003 (ip), vehicle: Klucel (hydroxypropylcellulose) (HPC)): 102 % of control

Structure (SMILES): Cc1nnc2c(N)nccn12
- T/C [12]: 94 % of control
- T/C [13]: 96 % of control

Structure (SMILES): C=C1C(=O)O[C@@H]2[C@H](O)[C@@H](C)[C@@H]3C=CC(=O)[C@@]3(C)[C@@H](OC(=O)/C(C)=C/C)[C@H]12
- T/C (dose: 1.5 mg/kg/injection, schedule: Q01DX009 (ip), vehicle: saline + alcohol): 107 % of control
- T/C (dose: 6.0 mg/kg/injection, schedule: Q01DX009 (ip), vehicle: saline + alcohol): 118 % of control
- T/C (dose: 6.75 mg/kg/injection, schedule: Q01DX009 (ip), vehicle: saline + alcohol): 158 % of control
- T/C (dose: 8.75 mg/kg/injection, schedule: Q01DX009 (ip), vehicle: saline + alcohol): 120 % of control
- T/C (dose: 12.0 mg/kg/injection, schedule: Q01DX009 (ip), vehicle: saline + alcohol): 116 % of control
- T/C (dose: 12.5 mg/kg/injection, schedule: Q01DX009 (ip), vehicle: saline + alcohol): 164 % of control

Structure (SMILES): CS/C(N)=N\NCCC(=O)Nc1c(C)cccc1C
- T/C [14]: 100 % of control
- T/C [15]: 91 % of control
- T/C [16]: 91 % of control

Structure (SMILES): COc1ccc2c(c1O)C1=CC=CCC13CCN(C)C3C2 (configuration not stated)
- T/C [14]: 103 % of control
- T/C [15]: 105 % of control
- T/C [16]: 108 % of control
